Reference: patent US6670363B1, “Azole compounds as therapeutic agents for fungal infections” (Ranbaxy Laboratories Limited, priority 2000, dated 2003)
In brackets after ≈: the same amount, converted by molar mass.

The molecules below were run on A. fumigatus s 1008 (assay: In vitro MIC, NCCLS M38P broth method (RPMI 1640/MOPS pH7), Aspergillus fumigatus). Details: A. fumigatus s 1008.
Format: cell-based

Molecule | MIC (υg/ml) (A. fumigatus s 1008) [µg/mL]
CC(C)NC(=S)Nc1ccc(N(C)CC(O)(Cn2cncn2)c2ccc(F)cc2F)cc1 (stereo not drawn) [Compound 82, 3-{N-[4-(Isopropylthioureido)-phenyl]-N-methyl}-2-(2,4-difluorophenyl)-1-(1H-1,2,4-triazolyl)-propan-3-amino-2-ol] | >12.5
Nc1ccc(NC(=O)NN2CCN(c3ccc(OCC(O)(Cn4cncn4)c4ccc(F)cc4F)cc3)CC2)cc1 (stereo not drawn) [Compound 76, 3-{4-[4-(4-Aminophenylureido)piperazinyl]phenoxy}-2-(2,4-difluorophenyl)-1-(1H-1,2,4-triazol-1-yl)-propan-2-ol] | >12.5
CC(C)NC(=S)NN1CCN(c2ccc(-n3cnn(CC(O)(Cn4cncn4)c4ccc(F)cc4F)c3=O)cc2)CC1 (stereo not drawn) [Compound 90, 2-[2-(2,4-Difluorophenyl)-2-hydroxy-3-(1H-1,2,4-triazol-1-yl)propyl]-4-{4-[4-(isopropylthiouredio)-1-piperazinyl]phenyl}-3-(2H,4H)-1,2,4-triazolone] | >12.5
CN(CC(O)(Cn1cncn1)c1ccc(F)cc1F)c1ccc(NC(=O)Nc2ccc(NC(=S)Nc3ccc(Cl)cc3)cc2)cc1 (stereo not drawn) [Compound 89, 3-{N-[4-((p-Chlorophenylthioureido)-phenylureido)-phenyl]-N-methyl}-2-(2,4-difluorophenyl)-1-(1H-1,2,4-triazolyl)-propan-3-amino-2-ol] | >12.5
OC(COc1ccc(N2CCN(NC(=S)Nc3ccc(C(F)(F)F)cc3)CC2)cc1)(Cn1cncn1)c1ccc(F)cc1F (stereo not drawn) [Compound 70, 3-{4-[4-(4-Trifluoromethylphenylthioureido)piperazinyl]phenoxy}-2-(2,4-difluorophenyl)-1-(1H-1,2,4-triazol-1-yl)-propan-2-ol] | >12.5
CC(Oc1ccc(N2CCN(NC(=O)Nc3ccc(Cl)cc3)CC2)cc1)C(O)(Cn1cncn1)c1ccc(F)cc1F (stereo not drawn) [Compound 78, [1R2S/1S2R] 1-{4-[4-(4-Chlorophenylureido)-piperazinyl]-phenoxy}2-(2,4-difluorophenyl)-1-methyl-3-(1H-1,2,4-triazolyl)-propan-2-ol] | 0.5 (≈ 0.836 µM)
CN(CC(O)(Cn1cncn1)c1ccc(F)cc1F)c1ccc(NC(=O)Nc2ccc(F)cc2)cc1 (stereo not drawn) [Compound 84, 3-{N-[4-(p-Fluorophenylureido)-phenyl]-N-methyl}-2-(2,4-difluorophenyl)-1-(1H-1,2,4-triazolyl)-propan-3-amino-2-ol] | >12.5
CN(CC(O)(Cn1cncn1)c1ccc(F)cc1F)c1ccc(NC(=O)Nc2ccc(Cl)cc2)cc1 (stereo not drawn) [Compound 86, 3-{N-[4-(p-Chlorophenylureido)-phenyl]-N-methyl}-2-(2,4-difluorophenyl)-1-(1H-1,2,4-triazolyl)-propan-3-amino-2-ol] | >12.5
Cc1ccc(NC(=S)NN2CCN(c3ccc(OCC(O)(Cn4cncn4)c4ccc(F)cc4F)cc3)CC2)cc1 (stereo not drawn) [Compound 64, 3-{4-[4-(p-Tolylthioureido)piperazinyl]phenoxy}-2-(2,4-difluorophenyl)-1-(1H-1,2,4-trizol-1-yl)-propan-2-ol] | 3.12 (≈ 5.38 µM)
Cc1ccc(NC(=S)Nc2ccc(N(C)CC(O)(Cn3cncn3)c3ccc(F)cc3F)cc2)cc1 (stereo not drawn) [Compound 83, 3-{N-[4-(p-Tolylthioureido)-phenyl]-N-methyl}-2-(2,4-difluorophenyl)-1-(1H-1,2,4-triazolyl)-propan-3-amino-2-ol] | >12.5
C[C@@H](Oc1ccc(N2CCN(NC(=O)Nc3ccc(Cl)cc3)CC2)cc1)[C@](O)(Cn1cncn1)c1ccc(F)cc1F [Compound 77, [1R2R/1S2S] 1-{4-[4-(4-Chlorophenylureido)-piperazinyl]-phenoxy}-2-(2,4-difluorophenyl)-1-methyl-3-(1H-1,2,4-triazolyl)-propan-2-ol] | 2 (≈ 3.34 µM)
CN(CC(O)(Cn1cncn1)c1ccc(F)cc1F)c1ccc(NC(=S)Nc2ccccc2)cc1 (stereo not drawn) [Compound 81, 3-{N-[4-(Phenylthioureido)-phenyl]-N-methyl}-2-(2,4-Difluorophenyl)-1-(1H-1,2,4-triazolyl)-propan-3-amino-2-ol] | >12.5
O=C(Nc1ccc(Cl)cc1Cl)NN1CCN(c2ccc(OCC(O)(Cn3cncn3)c3ccc(F)cc3F)cc2)CC1 (stereo not drawn) [Compound 72, 3-{4-[4-(2,4-Dichlorophenylureido)piperazinyl]phenoxy}-2-(2,4-difluorophenyl)-1-(1H-1,2,4-triazol-1-yl)-propan-2-ol] | >12.5
COC(=O)Cc1ccc(NC(=O)Nc2ccc(N(C)CC(O)(Cn3cncn3)c3ccc(F)cc3F)cc2)cc1 (stereo not drawn) [Compound 88, 3-{N-[4-((2-Methoxy-2-oxoethyl)-phenylureido)-phenyl]-N-methyl}-2-(2,4-difluorophenyl)-1-(1H-1,2,4-triazolyl)-propan-3-amino-2-ol] | >12.5
CC(C)NC(=S)NN1CCN(c2ccc(OCC(O)(Cn3cncn3)c3ccc(F)cc3F)cc2)CC1 (stereo not drawn) [Compound 65, 3-{4-[4-(Isopropylaminothiocarbonylamino)piperazinyl]phenoxy}-2-(2,4-difluorophenyl)-1-(1H-1,2,4-triazol-1-yl)-propan-2-ol] | >12.5
CN(CC(O)(Cn1cncn1)c1ccc(F)cc1F)c1ccc(NC(=O)Nc2ccc([N+](=O)[O-])cc2)cc1 (stereo not drawn) [Compound 85, 3-{N-[4-(p-nitrophenylureido)-phenyl]-N-methyl}-2-(2,4-Difluorophenyl)-1-(1H-1,2,4-triazolyl)-propan-3-amino-2-ol] | >12.5
OC(COc1ccc(N2CCN(NC(=S)Nc3ccc(Cl)cc3)CC2)cc1)(Cn1cncn1)c1ccc(F)cc1F (stereo not drawn) [Compound 66, 3-{4-[4-(4-Chlorophenylthioureido)piperazinyl]phenoxy}-2-(2,4-difluorophenyl)-1-(1H-1,2,4-triazol-1-yl)-propan-2-ol] | >12.5
3-{4-[4-(4-chlorophenyl-N-ethylureido)-piperazinyl]-phenoxy}-2-(2,4-difluorophenyl)-1-(1H-1,2,4-triazolyl)-2-ethoxy-3-propylamine [Compound 74] | >12.5
O=c1n(-c2ccc(N3CCN(NC(=S)Nc4ccc(Cl)cc4)CC3)cc2)cnn1CC(O)(Cn1cncn1)c1ccc(F)cc1F (stereo not drawn) [Compound 92, 2-[2-(2,4-Difluorophenyl)-2-hydroxy-3-(1H-1,2,4-triazol-1-yl)propyl]-4-{4-[4-(4-chlorophenylthiouredio)-1-piperazinyl]phenyl}-3-(2H,4H)-1,2,4-triazolone] | >12.5
COC(COc1ccc(N2CCN(NC(=O)N(C)c3ccc(Cl)cc3)CC2)cc1)(Cn1cncn1)c1ccc(F)cc1F (stereo not drawn) [Compound 75, 3-{4-[4-N-(4-Chlorophenyl)-N-(methylureido)-piperazinyl]-phenoxy}-2-(2,4-difluorophenyl)-1-(1H-1,2,4-triazolyl)-2-methoxypropane] | >12.5
CN(CC(O)(Cn1cncn1)c1ccc(F)cc1F)c1ccc(NC(=O)Nc2ccc(CC(=O)O)cc2)cc1 (stereo not drawn) [Compound 87] | >12.5
